Details of data set [1]: method as in earlier work. Particulars: patients; cited from earlier work.
For data set [2] the following is noted: patients; cited from earlier work.
For data set [3], the target named is T1, human serum albumin (HSA) (Homo sapiens, UniProt P02768).
T1 construct: purchased Biowest
Description: Binding to HSA by albumin-mediated size-exclusion chromatography (AMSEC), apparent molecular weight. Particulars: HSA buffer at physiologic concentration as mobile phase, room temperature, window 2.1-70.2 kDa. It counts as in vitro ADME. The method, then: Binding of ^177Lu-labeled ligands to HSA was assessed by albumin-mediated size-exclusion chromatography (AMSEC), a novel method that has recently been developed by our group to determine the apparent molecular weight (AMW) of a compound in the presence of HSA. A dedicated and detailed description of the AMSEC method will be published elsewhere to cover the context and the development process of this method in its entirety. Briefly, a gel filtration size-exclusion column (Superdex 75 Increase 10/300 GL; fractionation range, 70–3 kDa; GE Healthcare) was calibrated as recommended by the manufacturer using a commercially available set of proteins (Gel Filtration LMW Calibration Kit; GE Healthcare). AMSEC experiments were performed by injection of the various radioligands using an HSA buffer at physiologic concentration (Biowest) as the mobile phase at room temperature. Depending on the strength of the HSA/ligand interaction during the chromatographic procedure, an injected radioligand (1.0 MBq, 10–20 GBq/μmol) can show a reduced retention time that correlates to AMWs higher than the actual, physical, molecular weight (the latter being for all investigated ligands < 2 kDa, and thus below the column fractionation range). The stronger this interaction, the longer the mean time the ligand is bound to HSA during the chromatographic process and the faster the ligand is eluted from the column. By means of calibration, the retention time can be translated into a ligand-specific AMW (expressed in kDa) as a parameter allowing quantification of the extent of HSA binding. The detection window ranges between 2.1 kDa (cutoff value, determined by [^18F]fluoride; no HSA interaction) and 70.2 kDa (experimental molecular weight of HSA; maximum HSA interaction). [^177Lu]Lu-rhPSMA-7.3 served as an internal standard during AMSEC studies (30.4 ± 0.5 kDa; n = 10).

On the set-up of data set [4]: method as in PMID 34531260. Particulars: patients; cited from earlier work.
Data set [5] concerns LNCaP tumor xenografts. Details: method as in PMID 30136051. Particulars: 24 h after injection, cited from earlier work.
In a further data set the target is T2, PSMA (Homo sapiens, UniProt Q04609).
T2 construct: endogenous in cells; host or cells: LNCaP cells
T2 sequence (Q04609 whole entry): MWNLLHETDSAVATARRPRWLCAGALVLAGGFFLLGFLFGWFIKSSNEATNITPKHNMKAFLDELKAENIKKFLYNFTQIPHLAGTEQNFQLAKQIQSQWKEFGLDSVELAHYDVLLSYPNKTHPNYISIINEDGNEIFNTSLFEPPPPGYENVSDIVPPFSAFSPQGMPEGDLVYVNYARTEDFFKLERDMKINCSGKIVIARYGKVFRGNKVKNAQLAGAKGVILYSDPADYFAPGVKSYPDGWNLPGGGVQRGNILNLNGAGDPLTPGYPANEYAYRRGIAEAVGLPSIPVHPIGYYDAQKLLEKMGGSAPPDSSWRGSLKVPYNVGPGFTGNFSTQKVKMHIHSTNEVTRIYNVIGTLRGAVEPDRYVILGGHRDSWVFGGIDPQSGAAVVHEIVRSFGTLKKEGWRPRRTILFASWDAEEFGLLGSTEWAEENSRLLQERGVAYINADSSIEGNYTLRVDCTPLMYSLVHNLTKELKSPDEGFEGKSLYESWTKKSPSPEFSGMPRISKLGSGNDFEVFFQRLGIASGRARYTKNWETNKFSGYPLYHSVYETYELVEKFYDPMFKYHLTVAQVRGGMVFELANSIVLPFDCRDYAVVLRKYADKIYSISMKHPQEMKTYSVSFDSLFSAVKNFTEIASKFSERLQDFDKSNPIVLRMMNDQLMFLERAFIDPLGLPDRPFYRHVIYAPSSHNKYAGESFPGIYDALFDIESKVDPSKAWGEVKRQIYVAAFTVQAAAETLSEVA
As to the kind of experiment: Competitive binding (IC50) on LNCaP cells against ([125I]IBA)KuE. As for the experimental part:
(§1) Competitive binding studies were determined on LNCaP cells (1.5 × 10^5 cells in 0.25 mL/well) after incubation at 4°C for 1 h, using (((S)-1-carboxy-5-(4-([^125I]iodo)benzamido)pentyl)carbamoyl)-L-glutamic acid ([^125I]IBA)KuE; 0.2 nM/well) as the reference radioligand (n = 3). Internalization studies of the radiolabeled ligands (1.0 nM/well) were performed on LNCaP cells (1.25 × 10^5 cells in 0.25 mL/well) at 37°C for 1 h and accompanied by ([^125I]IBA)KuE (0.2 nM/well) as a reference. Data were corrected for nonspecific binding and normalized to the specific internalization observed for the reference (n = 3), as previously published ([8]).

For the next data set, the target named is T3, PSMA (LNCaP cells) (Homo sapiens, UniProt Q04609).
T3 construct: endogenous in cells; host or cells: LNCaP cells
T3 sequence (Q04609 whole entry): as above
Description: PSMA-mediated internalization into LNCaP cells. Type of data set: cell-based. Particulars: 1 h, 37°C, 1.0 nM/well, n = 3. As for the experimental part:
as §1

The test system of data set [6] is LNCaP tumor xenografts. Description: Biodistribution and small-animal SPECT/CT in LNCaP tumor-bearing mice, 24 h after injection. It counts as in vivo, male CB-17 SCID mice. As for the experimental part: All animal experiments were conducted in accordance with general animal welfare regulations in Germany (German animal protection act, as amended on May 18, 2018, article 141 G, version March 29, 2017, I 626, approval 55.2-1-54-2532-71-13) and the institutional guidelines for the care and use of animals. LNCaP tumor xenografts were established in 6- to 8-wk-old male CB-17 SCID mice as described previously ([8]).
The ^177Lu-labeled PSMA ligands (2–5 MBq; 0.1 nmol) were injected under isoflurane anesthesia into the tail vein of mice, which were euthanized 24 h after injection (n = 4–5). Selected organs were removed, weighed, and measured in a γ-counter. All rhPSMA ligands were evaluated during the same period (first quarter of 2020), whereas ^177Lu-labeled PSMA-617 and PSMA I&T ([17]) were assessed in 2016, using the identical cell line, mouse model, and experimental procedure.
Static images of ^177Lu-labeled ligands in euthanized mice were recorded 24 h after injection directly after blood collection, with an acquisition time of 45 min using a high-energy, general-purpose rat-and-mouse collimator and a stepwise multiplanar bed movement. For imaging studies, a VECTor4 small-animal SPECT/PET/optical imaging/CT device from MILabs was applied. Data were reconstructed using MILabs.Rec software (version 10.02) and PMOD software (version 4.0; PMOD Technologies LLC). After imaging, the mice underwent biodistribution studies.

Data set [7] is described as follows: Lipophilicity, n-octanol/phosphate-buffered saline distribution (log D7.4). Type of data set: physicochemical. Particulars: pH 7.4, n = 6. As for the experimental part: Approximately 1 MBq of the ^177Lu-labeled PSMA ligand was dissolved in 1 mL of a 1:1 mixture (v/v) of phosphate-buffered saline (pH 7.4) and n-octanol (n = 6). After vigorous mixing of the suspension for 3 min, the vial was centrifuged at 15,000g for 3 min, and 100-μL aliquots of both layers were measured in a γ-counter. Finally, the ratio of the radioactivity detected in the n-octanol sample and the phosphate-buffered saline buffer was calculated and expressed as distribution ratio log D7.4.

The mark [8] stands for this setting: LNCaP tumor-bearing SCID mice, identical conditions.
The mark [9] stands for this setting: LNCaP tumor-bearing mice, from previously published data.
The mark [10] stands for this setting: 24 h after injection, LNCaP tumor-bearing mice.
[11] abbreviates: male, CB-17 SCID, mouse, in vivo, 24 h.
The mark [12] stands for this setting: 24 h after injection, LNCaP tumor-bearing SCID mice, mean ± SD, n = 4-5.

Data on 4 compounds can be found in article PMC9536713, “Synthesis and Preclinical Evaluation of ^177Lu-Labeled Radiohybrid PSMA Ligands for Endoradiotherapy of Prostate Cancer” (Journal of Nuclear Medicine, 2022).

Where two headings read alike, the source gives them in different places.

T1 sequence (P02768 25-609): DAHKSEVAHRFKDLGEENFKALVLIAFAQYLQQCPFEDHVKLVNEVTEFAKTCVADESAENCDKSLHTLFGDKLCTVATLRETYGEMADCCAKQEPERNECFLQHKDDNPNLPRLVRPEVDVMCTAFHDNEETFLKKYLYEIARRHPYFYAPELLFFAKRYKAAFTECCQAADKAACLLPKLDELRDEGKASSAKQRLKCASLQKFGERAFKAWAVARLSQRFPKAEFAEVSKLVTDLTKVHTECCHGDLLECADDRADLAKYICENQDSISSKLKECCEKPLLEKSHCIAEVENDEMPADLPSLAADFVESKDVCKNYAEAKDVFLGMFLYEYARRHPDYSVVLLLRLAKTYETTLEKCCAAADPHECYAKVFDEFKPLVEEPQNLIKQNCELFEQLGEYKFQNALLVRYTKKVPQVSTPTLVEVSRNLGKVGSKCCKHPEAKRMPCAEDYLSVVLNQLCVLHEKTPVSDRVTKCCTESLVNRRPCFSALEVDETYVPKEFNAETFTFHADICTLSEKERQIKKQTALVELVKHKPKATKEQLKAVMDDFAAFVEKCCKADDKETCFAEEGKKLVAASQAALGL

Regarding `CC(C)(C)[Si]([18F])(c1ccc(C(=O)NC[C@@H](NC(=O)CC[C@@H](C(=O)O)N2CCN(CC(=O)[O-])CCN(CC(=O)[O-])CCN(CC(=O)[O-])CC2)C(=O)N[C@H](CCCCNC(=O)CCC(=O)NCCC[C@@H](NC(=O)CC[C@H](NC(=O)N[C@@H](CCC(=O)O)C(=O)O)C(=O)O)C(=O)O)C(=O)O)cc1)C(C)(C)C.[Ga+3]` [[^18F]Ga-rhPSMA-7.3], in [1], the “fold higher tumor uptake than diastereomeric mixture [18F]Ga-rhPSMA-7” value is 1.6 fold, the “fold lower excretion into the bladder than diastereomeric mixture [18F]Ga-rhPSMA-7” value is given as 5 fold and the “fold lower kidney uptake than diastereomeric mixture [18F]Ga-rhPSMA-7” value is given as 1.6 fold.

Take `O=C([O-])CC[C@H](NC(=O)N[C@@H](CCCCNC(=O)CCCCCCC(=O)NCCCC[C@@H](NC(=O)[C@@H](Cc1ccccc1)NC(=O)[C@@H](Cc1ccc(O)c(I)c1)NC(=O)CC[C@H](C(=O)[O-])N1CCN(CC(=O)[O-])CCN(CC(=O)[O-])CCN(CC(=O)[O-])CC1)C(=O)[O-])C(=O)[O-])C(=O)[O-].[177Lu+3].[H+].[H+].[H+].[H+].[H+]` [[^177Lu]Lu-PSMA I&T]: in data set [2], the “absorbed dose to the kidney” value is 0.7 ± 0.2 Gy/GBq. The “apparent molecular weight (AMW)” value in [3] was 5.3 kDa. The “effective dose (tumor)” value in [4] is on record as 2.6 ± 2.4 mGy/MBq. For the same compound, in the data set with LNCaP tumor xenografts [5] (setting [8]), the kidney uptake is given as 34.7 ± 17.2 %ID/g and the tumor uptake is recorded as 4.1 ± 1.1 %ID/g. In the data set with LNCaP tumor xenografts [5] (setting [9]), the tumor-to-blood ratio is 408 and the tumor-to-kidney ratio was 0.2. Besides, the IC50 at PSMA (LNCaP cells, 1 h, 4°C, ([125I]IBA)KuE 0.2 nM/well as reference radioligand, n = 3, read-out: PSMA binding affinity (half-maximal inhibitory concentration)) was 4.2 ± 0.8 nM. On PSMA (LNCaP cells), the “PSMA-mediated internalization as percentage of reference ligand ([125I]IBA)KuE” value was 145% ± 14%.

As for `O=C(O)CC[C@H](NC(=O)N[C@@H](CCCCNC(=O)[C@H](Cc1ccc2ccccc2c1)NC(=O)[C@H]1CC[C@H](CNC(=O)CN2CCN(CC(=O)O)CCN(CC(=O)O)CCN(CC(=O)O)CC2)CC1)C(=O)O)C(=O)O` [[^177Lu]Lu-PSMA-617, metal not drawn], the “apparent molecular weight (AMW)” value in data set [3] was determined as 13.7 kDa. The tumor-to-kidney ratio in the data set with LNCaP tumor xenografts [6] (setting [10]) is 5.9. Further, in the data set on LNCaP tumor xenografts [6] (setting [11]), the kidney uptake amounted to 1.4 ± 0.4 %ID/g, the tumor uptake came to 7.5 ± 0.9 %ID/g and the tumor-to-blood ratio is reported as 1,424. At PSMA, this compound showed an IC50 of 3.3 ± 0.2 nM. On PSMA (LNCaP cells), the “PSMA-mediated internalization as percentage of reference ligand ([125I]IBA)KuE” value was 203% ± 10%.

As for `CC(C)(C)[Si](F)(c1ccc(C(=O)NC[C@@H](NC(=O)CN2CCN(CC(=O)[O-])CCN(CC(=O)[O-])CCN(CC(=O)[O-])CC2)C(=O)N[C@H](CCCCNC(=O)CCC(=O)NCCC[C@@H](NC(=O)CC[C@H](NC(=O)N[C@@H](CCC(=O)O)C(=O)O)C(=O)O)C(=O)O)C(=O)O)cc1)C(C)(C)C.[177Lu+3]` [[^177Lu]Lu-rhPSMA-10.1], the “apparent molecular weight (AMW)” value in data set [3] is listed as 25.1 kDa. In addition, in the data set with LNCaP tumor xenografts [6] (24 h after injection), the “kidney uptake as percentage of that of [177Lu]Lu-rhPSMA-7.3” value is 20%; the “tumor-to-blood ratio, times higher than for [177Lu]Lu-PSMA-617” value was found to be 8 times; the “tumor-to-blood ratio, times higher than for [177Lu]Lu-rhPSMA-7.3” value is listed as 3 times. Also, in the data set on LNCaP tumor xenografts [6] (setting [12]), the kidney uptake was determined as 2.0 ± 0.8 %ID/g and the tumor uptake worked out at 9.8 ± 0.3 %ID/g. In the data set on LNCaP tumor xenografts [6] (setting [10]), the tumor-to-blood ratio is 11,498 and the tumor-to-kidney ratio amounted to 5.7. Further, the “tracer uptake in tumor of the imaged mouse” value in the data set on LNCaP tumor xenografts [6] (single mouse of SPECT/CT image, 24 h after injection, from subsequent biodistribution) was found to be 9.4 %ID/g. In addition, the “log D7.4” value in data set [7] is recorded as −3.8.
